As usually defined, the EC50 is the concentration at which the effect is half-maximal. Usually Ki stands for the dissociation constant of the complex between target and ligand, obtained from inhibition or displacement. A lower Ki goes with a stronger hold on the target.

Test [1] concerns the target T1, Transient receptor potential cation channel subfamily V member 1 (Rattus norvegicus, UniProt O35433). The test can be described thus: Agonist activity by [Ca2+] uptake in CHO cells expressing rat TRPV1 at 10-30 uM; WE = Weakly effective. In kind it is functional, cell-based.
The target of test [2] is T1, Transient receptor potential cation channel subfamily V member 1. The test is described as follows: Antagonist activity for rat TRPV1 expressed in CHO cells; Weakly effective. Type of test: functional, cell-based.
The target is the same in test [3]. The test can be described thus: In vitro binding affinity for rat TRPV1 expressed in CHO cells using [3H]-RTX. Type of test: cell-based.
Test [4] shares this target. The test is described as follows: Antagonist activity for rat TRPV1 expressed in CHO cells. In kind it is functional, cell-based.
Test [5] shares this target. The test is described as follows: Agonist activity by 300 nM capsaicin induced [Ca2+] uptake in CHO cells expressing rat TRPV1 at 10-30 uM; NE = Not effective. Type of test: functional, cell-based.
The target is the same in test [6]. The test is described as follows: Agonist activity by 300 nM capsaicin induced [Ca2+] uptake in CHO cells expressing rat TRPV1 at 10-30 uM; WE = Weakly effective. In kind it is functional, cell-based.
Test [7] shares this target. The test can be described thus: Agonist activity by [Ca2+] uptake in CHO cells expressing rat TRPV1 at 10-30 uM; NE = Not effective. In kind it is functional, cell-based.
Test [8] shares this target. The test is described as follows: Antagonist activity for rat TRPV1 expressed in CHO cells; Not effective. Type of test: functional, cell-based.
Test [9] shares this target. The test is described as follows: Agonist activity by [Ca2+] uptake in CHO cells expressing rat TRPV1 at 10-30 uM. Type of test: functional, cell-based.
Test [10] has the same target. The test can be described thus: In vitro binding affinity for rat TRPV1 expressed in CHO cells using [3H]RTX; Not effective. Type of test: cell-based.

T1 sequence (O35433 whole entry): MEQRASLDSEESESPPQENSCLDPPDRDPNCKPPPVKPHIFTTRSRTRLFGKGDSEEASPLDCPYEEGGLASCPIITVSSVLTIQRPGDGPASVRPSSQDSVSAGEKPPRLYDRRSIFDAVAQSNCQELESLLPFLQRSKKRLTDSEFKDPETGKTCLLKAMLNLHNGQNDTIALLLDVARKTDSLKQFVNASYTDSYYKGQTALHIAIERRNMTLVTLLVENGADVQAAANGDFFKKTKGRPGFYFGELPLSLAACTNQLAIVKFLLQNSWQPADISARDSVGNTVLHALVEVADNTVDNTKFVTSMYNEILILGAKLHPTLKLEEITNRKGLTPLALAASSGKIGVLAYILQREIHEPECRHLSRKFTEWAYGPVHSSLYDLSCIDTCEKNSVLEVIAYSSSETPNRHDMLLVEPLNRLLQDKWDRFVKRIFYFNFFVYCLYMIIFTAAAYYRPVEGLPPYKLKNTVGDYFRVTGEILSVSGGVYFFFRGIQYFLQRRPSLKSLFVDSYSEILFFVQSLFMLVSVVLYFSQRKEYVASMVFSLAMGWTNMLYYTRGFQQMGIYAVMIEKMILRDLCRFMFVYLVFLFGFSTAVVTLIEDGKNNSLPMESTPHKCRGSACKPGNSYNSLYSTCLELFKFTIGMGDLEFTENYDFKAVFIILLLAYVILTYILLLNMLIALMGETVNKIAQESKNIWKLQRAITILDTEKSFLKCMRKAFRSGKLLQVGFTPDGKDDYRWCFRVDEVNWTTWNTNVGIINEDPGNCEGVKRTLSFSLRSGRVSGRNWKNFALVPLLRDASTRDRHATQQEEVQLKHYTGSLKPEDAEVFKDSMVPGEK

As for `CC(C)(C)c1ccc(C/N=C(\S)NCc2ccc(NS(N)(=O)=O)cc2)cc1`, in test [1], the EC50 result is recorded as “Partial agonist”. The Ki result in test [2] was “Partial antagonist”; in test [3], 650 nM.
Turning to `CC(C)(C)c1ccc(C/N=C(\S)NCc2ccc(NS(=O)(=O)CCN=[N+]=[N-])cc2)cc1`, the Ki in test [4] worked out at 231 nM; in test [3] it was 145 nM. Moreover, the EC50 result in test [5] was “Not Active”.
Regarding `CC(C)(C)c1ccc(C/N=C(\S)NCCc2ccc(NS(C)(=O)=O)cc2)cc1`, the Ki in test [4] stood at 699 nM; in test [3], 3900 nM. Also, the EC50 result in test [6] (cho) is given as “Partial agonist”.
`CC(C)(C)c1ccc(C/N=C(\S)NCc2ccc(NS(C)(=O)=O)cn2)cc1` displayed a Ki in test [4] of 4100 nM. Besides, the EC50 result in test [7] (cho) is given as “Not Active”.
In the case of `CC(C)(C)c1ccc(C/N=C(\S)NCc2ccc(NS(C)(=O)=O)c(O)c2)cc1`, the EC50 entry in test [1] was “Partial agonist”. In addition, the Ki result is “Partial antagonist” in test [2] and 750 nM in test [3].
Take `CSc1cccc(C/N=C(\S)NCc2ccc(C(C)(C)C)cc2)c1`: the 50% effective concentration (EC50) result in test [6] (cho) was “Partial agonist”. Moreover, the Ki is 580 nM in [3] and “Not Active” in [8].
Turning to `CC(C)(C)c1ccc(C/N=C(\S)NCc2ccc(CNS(C)(=O)=O)cc2)cc1`, the EC50 in test [9] worked out at 1720 nM. The Ki result in [8] is on record as “Not Active”.
For `CC(C)(C)c1ccc(C/N=C(\S)NCc2ccc(NS(C)(=O)=O)c(S(C)(=O)=O)c2)cc1`, the Ki entry in [10] and in test [8] was “Not Active” throughout. Besides, in test [7] (cho), the EC50 entry is listed as “Not Active”.
For the compound `CC(C)(C)c1ccc(C/N=C(\S)NCc2ccc(NS(C)(=O)=O)c([N+](=O)[O-])c2)cc1`, the Ki was found to be 610 nM in [4] and 1300 nM in test [3]. Also, in test [7] (cho), the EC50 result was “Not Active”.
With `CC(C)(C)c1ccc(C/N=C(\S)NCc2cccc(NS(C)(=O)=O)c2)cc1`, the EC50 in [7] (read-out: EC50) was found to be 4100 nM. In addition, the figures for the Ki in [3] and in [8] were 6000 nM and “Not Active”, respectively.
As for `CC(C)(C)c1ccc(C/N=C(\S)Nc2ccc(NS(C)(=O)=O)cc2)cc1`, the results for the Ki in [4] and in [3] were 6800 nM and 9560 nM, respectively. Further, the EC50 result in [1] was “Partial agonist”.
For `CC(C)(C)c1ccc(C/N=C(\S)NCc2ccc(NS(C)(=O)=O)cc2Cl)cc1`, the Ki stood at 45.5 nM in test [4] and 144 nM in test [3]. Also, the EC50 entry in [7] (cho) is given as “Not Active”.
With `CC(C)Oc1cc(C/N=C(\S)NCc2ccc(C(C)(C)C)cc2)ccc1NS(C)(=O)=O`, the results for the Ki in test [4] and in test [3] were 3600 nM and 8070 nM, respectively. Also, the EC50 entry in test [7] (cho) is given as “Not Active”.
With `CC(C)(C)c1ccc(CNC(=S)NCc2ccc(NS(C)(=O)=O)cc2)cc1`, in test [7] (cho), the EC50 result is listed as “Not Active”.
Regarding `COc1cc(CNC(=S)NCc2ccc(C(C)(C)C)cc2)ccc1NS(C)(=O)=O`, in [6] (cho), the EC50 result is “Partial agonist”.
As to `CC(C)(C)c1ccc(C/N=C(\S)NCc2ccc(NS(C)(=O)=O)c(Cl)c2)cc1`, the Ki in test [4] worked out at 400 nM; in [3] it was 1160 nM. In addition, the EC50 entry in test [5] is on record as “Not Active”.
As for `CC(C)(C)c1ccc(C/N=C(\S)NCc2ccc(NS(C)(=O)=O)cc2F)cc1`, the Ki in [4] was 27.3 nM; in test [3], 215 nM. Moreover, in [7] (cho), the EC50 result is listed as “Not Active”.
In the case of `CC(C)(C)c1ccc(C/N=C(\S)NCc2cccc(S(C)(=O)=O)c2)cc1`, the EC50 in test [6] (read-out: EC50) was 1010 nM. For the same compound, the Ki was 1000 nM in [3] and “Not Active” in test [8].
As to `CC(C)(C)c1ccc(C/N=C(\S)NCc2ccc(NS(C)(=O)=O)cc2C(F)(F)F)cc1`, the Ki amounted to 119 nM in test [4] and 440 nM in [3]. For the same compound, the EC50 result in test [7] (cho) is recorded as “Not Active”.
Take `CC(C)(C)c1ccc(C/N=C(\S)NCc2ccc(NS(=O)(=O)CCN)cc2)cc1`: the EC50 entry in [7] (cho) is “Not Active”. Also, the figures for the Ki result in [2] and in test [3] were “Partial antagonist” and 4640 nM, respectively.
As to `CC(C)(C)c1ccc(C/N=C(\S)NCc2cnc(NS(C)(=O)=O)cn2)cc1`, the Ki entry in [10] and in test [8] was “Not Active” each time. Also, in test [7] (cho), the EC50 entry is given as “Not Active”.
For `CC(C)(C)c1ccc(CNC(=S)NCc2ccc(NS(C)(=O)=O)c(F)c2)cc1`, the EC50 result in test [7] (cho) is recorded as “Not Active”.
As for `C[S+]([O-])c1cccc(C/N=C(\S)NCc2ccc(C(C)(C)C)cc2)c1` (stereo not drawn), the half-maximal effective concentration (EC50) in test [7] (read-out: EC50) was found to be 1890 nM. The Ki was 3600 nM in test [3] and “Not Active” in test [8].
As to `CC(C)(C)c1ccc(C/N=C(\S)NCc2ccc(NS(C)(=O)=O)nc2)cc1`, the Ki in test [4] amounted to 177 nM; in [3], 4100 nM. Moreover, the EC50 entry in [7] (cho) was “Not Active”.
Turning to `C=CS(=O)(=O)Nc1ccc(CN/C(S)=N/Cc2ccc(C(C)(C)C)cc2)cc1`, the EC50 in test [9] stood at 250 nM. In addition, the Ki in test [3] was 231 nM; in test [8] it was “Not Active”.
Take `Oc1cc2c(cc1O)CN(C(=S)NCCc1ccc(Cl)cc1)CCC2` [CAPSAZEPINE]: in [7] (cho), the EC50 result was “Not Active”.

The record behind these values is ChEMBL document CHEMBL1142822, “Analysis of structure-activity relationships for the 'A-region' of N-(4-t-butylbenzyl)-N'-[4-(methylsulfonylamino)benzyl]thiourea analogues as TRPV1 antagonists” (Bioorg Med Chem Lett, 2005).
